We go through 1 compound from ChEMBL document CHEMBL2073970, “Expression cloning and functional characterization of the kidney cortex high-affinity proton-coupled peptide transporter” (Proc Natl Acad Sci U S A, 1996).

Molecules are shown by their SMILES.

For the assay, the target named is T1, Solute carrier family 15 member 2 (Rattus norvegicus) (UniProt Q63424).
T1 sequence (whole entry): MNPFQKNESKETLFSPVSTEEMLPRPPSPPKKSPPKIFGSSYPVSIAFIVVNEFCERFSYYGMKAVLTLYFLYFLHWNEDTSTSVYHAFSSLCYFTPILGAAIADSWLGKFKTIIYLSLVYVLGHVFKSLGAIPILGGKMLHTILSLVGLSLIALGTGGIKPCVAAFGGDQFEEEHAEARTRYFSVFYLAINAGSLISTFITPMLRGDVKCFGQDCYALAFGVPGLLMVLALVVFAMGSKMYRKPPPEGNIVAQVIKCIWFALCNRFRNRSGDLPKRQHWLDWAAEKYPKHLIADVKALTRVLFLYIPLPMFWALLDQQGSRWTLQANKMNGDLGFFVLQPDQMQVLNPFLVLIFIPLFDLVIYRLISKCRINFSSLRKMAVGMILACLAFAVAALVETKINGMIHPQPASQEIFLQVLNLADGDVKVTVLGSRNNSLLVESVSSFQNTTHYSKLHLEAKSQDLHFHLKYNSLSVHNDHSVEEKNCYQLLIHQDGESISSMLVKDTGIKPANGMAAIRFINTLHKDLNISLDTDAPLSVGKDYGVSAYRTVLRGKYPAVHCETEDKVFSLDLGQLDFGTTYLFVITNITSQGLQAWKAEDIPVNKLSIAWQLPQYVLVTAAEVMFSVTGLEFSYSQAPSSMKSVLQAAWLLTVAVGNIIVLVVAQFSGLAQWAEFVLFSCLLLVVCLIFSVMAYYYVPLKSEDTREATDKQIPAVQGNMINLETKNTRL
Put plainly: TP_TRANSPORTER: inhibition of Cefadroxil uptake (Cefadroxil: 25 uM, Loracarbef: 5000uM) in Xenopus laevis oocytes. The format is functional, cell-based. As to conditions: Oocyte.

In the case of `N[C@@H](C(=O)N[C@@H]1C(=O)N2C(C(=O)O)=C(Cl)CC[C@H]12)c1ccccc1`, the Activity result was “inhibitor [15% (at a rough estimate) of control]”.
